Assay [1] addresses T1, human dopamine D1 receptor (Homo sapiens, UniProt P21728).
T1 construct: A 1.4 Kb Hind III to Xho I fragment was subcloned into the vector pMMLV; expressed in transfected cells; host or cells: CHO cells, clone CHO-D1M#9 (plasmid pHD1MMLV), membranes
The assay can be described thus: [3H]-SCH-23390 binding to cloned human dopamine D1 receptors (CHO cell membranes). Particulars: competitive binding, [3H]-SCH-23390, cloned human D1 in CHO membranes; read-out: D1 affinity Ki.

In assay [2] the target is human dopamine D2Long (D2L) receptors (Homo sapiens, UniProt P14416).
A further assay concerns the target T2, D1 receptor (Homo sapiens, UniProt P21728).
T2 construct: expressed in transfected cells; host or cells: D1 transfected CHO cell line
The assay can be described thus: D1 Activation Adenylyl Cyclase Assay (cAMP FlashPlate, D1 transfected CHO cell line). Particulars: agonist activity at the D1 receptor, adenylate cyclase assay, D1 transfected CHO cell line; read-out: D1 EC50. The class given is cell-based. The method, then:
D1 Activation Adenylyl Cyclase Assay
Purpose: To measure D1-agonist activity compounds using an Adenylyl Cyclase Activation Flash Plate Assay from NEN.
Buffers: Activation and Detection buffers are provided from NEN: Catalog # SMP004A.
Maintenance of D1 transfected CHO cell line: • 1. Cells are grown in a 150 cc flask in an incubator at 37° C. with 5% CO2 for 2-3 days (4 maximum) until confluent. • 2. Aspirate off old media (Cells adhere to the plastic flask), wash 2× with sterile PBS. • 3. Add ˜5 mL of Trypsin EDTA (enough to cover bottom of the flask) for 5 min. at RT. • 4. Stop digestion with 15 mL of Media (Ham's F12 plus 10% FBS, 1% P/S, 400 μg/mL G418). • Bang flask on counter to release them from the flask. • 5. Add 2 mL of this to 30 mL of Media in a fresh flask. Return to incubator. Preparation of Cells for Assay: • 1. Loosen the cells with 5 mL Vercine (EDTA)/flask for 10 minutes in incubator. • 2. Add 20 mL of Serum-free media/flask. Transfer to 50-mL Falcon tube. • 3. Spin down cells at 1000 RPM for 5 minutes at 4° C. • 4. Aspirate off old media and resuspend in 5 mL of Serum-free media/plate to be done. • 5. Dilute 10 μL 1/10 in 90 μL Trypan Blue solution and count with a hemocytometer. • Count (live cells only) all four areas and average them. • Count X 10^5 equals cells/mL (including accounting for dilution in Trypan). • 6. Dilute to 50,000 cells/50 μL (1,000,000 cells/mL) in Serum-free media. • 7. Put 50 μL/well in Rows 3-12 of a cAMP FlashPlate. • 8. Put in incubator at 37° C. for 2-4 hours, to allow cells to recover and attach. Adenylyl Cyclase Activation Assay: • 1. Prepare the cAMP standards: • Add 130 μL/well of stimulation buffer to each row of a separate 96-well “standard” plate, 2 columns/plate. • Dilute stock cAMP standard 1/5 with stimulation buffer (final concentration is 1000 pmol/mL). Add 130 μL of this to row A. • Make 1/2 serial dilutions by adding 130 μL from each well to the next (A-G), mixing between each. • Final concentrations are: • A: 500, B: 250, C: 125, D: 62.5, E: 31.25, F: 15.6, G: 7.8, H: 0 pmol/mL. • Place 100 μL from each row from 2 columns of the standard plate into columns 1 and 2 of each “reaction” plate. • 2. Prepare the negative and positive control in the “reaction” plate: • Column 3, rows A-D, add 100 μL stimulation buffer (negative control). • Column 3, rows E-H, add 90 μL of stimulation buffer plus 10 μL of 200 μM APO (positive control, […]). (10 μL 10 mM APO, plus 490 μL stim. buffer=1/50 dilution.) • 3. Prepare the agonist compound dilutions in the “compound” plate: • Add 80 μL of stimulation buffer to row A (One column for each compound), and 90 μL of stimulation buffer to rows B—H. • Add 20 μL of 10 mM of each compound to appropriate row A. • Make 1/10 serial dilutions by adding 10 μL from each well to the next (A-H), mixing between each. • 4. […]. Prepare Detection/Stop buffer by adding 90 μL/plate of cAMP-^125I to 10 mL/plate plus 6 mL (for dead volume) of detection buffer. Steps 6-8 performed with the Multi-Mek. • 6. Add 50 μL to each well of the FlashPlate with CHO cells set up earlier. • 7. Incubate at RT for 8 minutes. • 8. Stop reaction by adding 100 μL of detection/stop buffer to each well. • 9. Cover with plastic film and incubate at RT for 16-24 hours (don't wait more than 24 hours). • 10. Count in a Packard Top-Count. Calculations: • 1. Raw signals generated by cAMP standard wells, without cells, are averaged at each cAMP concentration and converted to % B/Bo by dividing the raw signal at each cAMP concentration by the raw signal with no cAMP added. • 2. These values are used to generate a standard curve by plotting cAMP concentration versus % B/Bo. • 3. Raw data for each compound at each concentration is also converted to % B/B. by the same method. • 4. These values are then converted to pmol cAMP/mL using the standard curve. • 5. These cAMP values are then averaged across the three replicates for each compound concentration. • 6. […]

Structures can show the parent of a compound that is named as a salt.

Sequence of human dopamine D2Long (D2L) receptors (P14416 whole entry): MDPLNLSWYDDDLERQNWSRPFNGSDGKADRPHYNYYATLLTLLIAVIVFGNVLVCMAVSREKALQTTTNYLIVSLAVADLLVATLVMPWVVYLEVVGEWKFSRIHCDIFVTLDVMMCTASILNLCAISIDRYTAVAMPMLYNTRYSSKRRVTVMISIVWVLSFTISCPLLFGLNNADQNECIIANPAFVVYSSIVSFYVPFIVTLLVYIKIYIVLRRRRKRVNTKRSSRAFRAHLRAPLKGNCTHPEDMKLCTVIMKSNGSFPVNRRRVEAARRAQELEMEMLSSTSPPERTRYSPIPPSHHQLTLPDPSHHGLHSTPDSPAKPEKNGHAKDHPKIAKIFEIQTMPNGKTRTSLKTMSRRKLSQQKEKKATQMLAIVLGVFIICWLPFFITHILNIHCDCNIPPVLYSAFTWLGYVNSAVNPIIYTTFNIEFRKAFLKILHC
T2 sequence (P21728 whole entry): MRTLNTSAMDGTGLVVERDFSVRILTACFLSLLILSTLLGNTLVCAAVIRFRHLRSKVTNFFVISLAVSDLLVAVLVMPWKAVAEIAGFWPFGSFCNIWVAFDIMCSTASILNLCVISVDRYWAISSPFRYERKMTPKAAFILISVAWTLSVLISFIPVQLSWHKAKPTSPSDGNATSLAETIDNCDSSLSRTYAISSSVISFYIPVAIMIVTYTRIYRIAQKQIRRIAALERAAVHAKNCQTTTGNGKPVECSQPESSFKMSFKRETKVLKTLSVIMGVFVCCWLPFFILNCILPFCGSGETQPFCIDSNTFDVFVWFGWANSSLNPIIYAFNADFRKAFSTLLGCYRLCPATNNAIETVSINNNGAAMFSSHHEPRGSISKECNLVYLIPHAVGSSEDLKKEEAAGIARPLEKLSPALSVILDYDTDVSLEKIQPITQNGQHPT
T1 sequence (P21728 whole entry, the tested form may be a part): as the sequence (P21728 whole entry) above

As for `CCCCN1CCC([C@@H]2Cc3c(ccc(C)c3O)[C@H](CN)O2)CC1` [Example 33, (1R,3S)-1-Aminomethyl-3-(1-butyl-piperidin-4-yl)-6-methyl-isochroman-5-ol dihydrochloride], the Ki in assay [1] was 70 nM; in assay [2], at least 10 µM. The EC50 on D1 receptor is 13 nM.

Take `Cc1ccc2c(c1O)C[C@@H](C1CCN(CC3CCCCC3)CC1)O[C@H]2CN` [Example 34, (1R,3S)-1-Aminomethyl-3-(1-cyclohexylmethyl-piperidin-4-yl)-6-methyl-isochroman-5-ol dihydrochloride]: the Ki in assay [1] was 47 nM; in assay [2], at least 10 µM. Besides, the EC50 at D1 receptor worked out at 66 nM.

For `Cc1ccc2c(c1O)C[C@@H](C1CCN(Cc3ccccc3Cl)CC1)O[C@H]2CN` [Example 35, (1R,3S)-1-Aminomethyl-3-[1-(2-chloro-benzyl)-piperidin-4-yl]-6-methyl-isochroman-5-ol dihydrobromide], the Ki in assay [1] came out at 42 nM; in assay [2] it was 0.096 µM. In addition, on D1 receptor, the EC50 turned out to be 44 nM.

Take `Cc1ccc2c(c1O)C[C@@H](C1CCN(Cc3ccccc3F)CC1)O[C@H]2CN` [Example 36, (1R,3S)-1-Aminomethyl-3-[1-(2-fluoro-benzyl)-piperidin-4-yl]-6-methyl-isochroman-5-ol dihydrobromide]: the Ki in assay [1] amounted to 42.8 nM; in assay [2], 0.749 µM. The EC50 on D1 receptor was found to be 62 nM.

As to `Cc1ccc2c(c1O)C[C@@H](C1CCN(Cc3cccc(Cl)c3)CC1)O[C@H]2CN` [Example 37, (1R,3S)-1-Aminomethyl-3-[1-(3-chloro-benzyl)-piperidin-4-yl]-6-methyl-isochroman-5-ol dihydrobromide], the Ki turned out to be 17.9 nM in assay [1] and 0.356 µM in assay [2]. Besides, the EC50 at D1 receptor is 110 nM.

As for `Cc1ccc2c(c1O)C[C@@H](C1CCN(CC3CC3)CC1)O[C@H]2CN` [Example 38, (1R,3S)-1-Aminomethyl-3-(1-cyclopropylmethyl-piperidin-4-yl)-6-methyl-isochroman-5-ol dihydrochloride], the Ki in assay [1] was 53 nM; in assay [2] it was at least 10 µM. Further, at D1 receptor, the EC50 worked out at 10 nM.

`Cc1ccc2c(c1O)C[C@@H](C1CCN(Cc3cccc4ccccc34)CC1)O[C@H]2CN` [Example 39, (1R,3S)-1-Aminomethyl-6-methyl-3-(1-naphthalen-1-ylmethyl-piperidin-4-yl)-isochroman-5-ol dihydrochloride]: the results for the Ki in assay [1] and in assay [2] were 113 nM and at least 10 µM, respectively. Moreover, the concentration giving a half-maximal response (EC50) at D1 receptor amounted to 750 nM.

Turning to `Cc1ccc2c(c1O)C[C@@H](C1CCN(CCC(C)C)CC1)O[C@H]2CN` [Example 41, (1R,3S)-1-Aminomethyl-6-methyl-3-[1-(3-methyl-butyl)-piperidin-4-yl]-isochroman-5-ol dihydrochloride], the figures for the Ki in assay [1] and in assay [2] were 114 nM and at least 10 µM, respectively. On D1 receptor, the EC50 was determined as 250 nM.

As to `Cc1ccc2c(c1O)C[C@@H](C1CCN(CCO)CC1)O[C@H]2CN` [Example 43, (1R,3S)-1-Aminomethyl-3-[1-(2-hydroxy-ethyl)-piperidin-4-yl]-6-methyl-isochroman-5-ol dihydrochloride], the Ki was 86.1 nM in assay [1] and at least 10 µM in assay [2]. On D1 receptor, the EC50 worked out at 110 nM.

Regarding `Cc1ccc2c(c1O)C[C@@H](C1CCN(Cc3ccc4ccccc4c3)CC1)O[C@H]2CN` [Example 45, (1R,3S)-1-Aminomethyl-6-methyl-3-(1-naphthalen-2-ylmethyl-piperidin-4-yl)-isochroman-5-ol dihydrochloride], the Ki in assay [1] is 96.4 nM; in assay [2] it was at least 10 µM. Moreover, the concentration for a half-maximal effect (EC50) on D1 receptor turned out to be 110 nM.

With `Cc1ccc2c(c1O)C[C@@H](C1CCN(Cc3ccc(Oc4ccccc4)cc3)CC1)O[C@H]2CN` [Example 46, (1R,3S)-1-Aminomethyl-6-methyl-3-[1-(4-phenoxy-benzyl)-piperidin-4-yl]-isochroman-5-ol dihydrochloride], the figures for the Ki in assay [1] and in assay [2] were 49 nM and 0.215 µM, respectively. Further, on D1 receptor, the EC50 was 100 nM.

Take `Cc1ccc2c(c1O)C[C@@H](C1CCN(Cc3cccs3)CC1)O[C@H]2CN` [Example 47, (1R,3S)-1-Aminomethyl-6-methyl-3-(1-thiophen-2-ylmethyl-piperidin-4-yl)-isochroman-5-ol dihydrochloride]: the inhibition constant (Ki) is 66.4 nM in assay [1] and at least 10 µM in assay [2]. For the same molecule, at D1 receptor, the EC50 was 170 nM.

For `Cc1ccc2c(c1O)C[C@@H](C1CCN(Cc3ccc(C(C)C)cc3)CC1)O[C@H]2CN` [Example 48, (1R 3S)-1-Aminomethyl-3-[1-(4-isopropyl-benzyl)-piperidin-4-yl]-6-methyl-isochroman-5-ol dihydrochloride], the Ki in assay [1] is 37.4 nM; in assay [2], at least 10 µM. Moreover, the EC50 at D1 receptor is 26 nM.

`Cc1ccc2c(c1O)C[C@@H](C1CCN(Cc3ccc(-c4ccccc4)cc3)CC1)O[C@H]2CN` [Example 49, (1R,3S)-1-Aminomethyl-3-(1-biphenyl-4-ylmethyl-piperidin-4-yl)-6-methyl-isochroman-5-ol dihydrochloride]: the inhibitory constant (Ki) in assay [1] was 48.2 nM; in assay [2], 0.31 µM. At D1 receptor, the EC50 was determined as 78 nM.

Consider `Cc1ccc2c(c1O)C[C@@H](C1CCN(Cc3cccnc3)CC1)O[C@H]2CN` [Example 53, (1R,3S)-1-Aminomethyl-6-methyl-3-(1-pyridin-3-ylmethyl-piperidin-4-yl)-isochroman-5-ol dihydrochloride], for which the Ki is 60.7 nM in assay [1] and at least 10 µM in assay [2]. Further, at D1 receptor, the EC50 was determined as 15 nM.

For the molecule `Cc1ccc2c(c1O)C[C@@H](C1CCN(Cc3ccc4ccccc4n3)CC1)O[C@H]2CN` [Example 55, (1R,3S)-1-Aminomethyl-6-methyl-3-(1-quinolin-2-ylmethyl-piperidin-4-yl)-isochroman-5-ol dihydrochloride], the Ki in assay [1] was 53.6 nM; in assay [2] it was 0.449 µM. Also, the EC50 at D1 receptor was 16 nM.

Consider `Cc1ccc2c(c1O)C[C@@H](C1CCN(Cc3cnc4ccccc4c3)CC1)O[C@H]2CN` [Example 56, (1R,3S)-1-Aminomethyl-6-methyl-3-(1-quinolin-3-ylmethyl-piperidin-4-yl)-isochroman-5-ol dihydrochloride], for which the values for the Ki in assay [1] and in assay [2] were 30.5 nM and at least 10 µM, respectively. Further, on D1 receptor, the EC50 turned out to be 12 nM.

With `Cc1ccc2c(c1O)C[C@@H](C1CCN(Cc3ccnc4ccccc34)CC1)O[C@H]2CN` [Example 57, (1R,3S)-1-Aminomethyl-6-methyl-3-(1-quinolin-4-ylmethyl-piperidin-4-yl)-isochroman-5-ol dihydrochloride], the Ki was 59.6 nM in assay [1] and at least 10 µM in assay [2]. The EC50 on D1 receptor was determined as 12 nM.

For the origin of these results see patent publication US7919508B2, “3-piperidinylisochroman-5-ols as dopamine agonists” (Aventis Pharmaceuticals Inc., priority 2004, dated 2011).
